Measured values taken from PubChem BioAssay AID743417 (Broad Institute, 2014).
Results filed as inconclusive are left out.

Test system: Clone20 osteoblast Shn3 3'UTR firefly luciferase, 24 h
Experiment: Shn3 3'UTR reporter inhibitors, dose response, cell-based, Clone20 osteoblasts, luminescence, dry powder, set 2 (AID 743417)

SMILES: COc1ccc(S(=O)(=O)N2CCN(C(=O)c3cc(-c4ccc(Br)cc4)n[nH]3)CC2)cc1OC
- AC50: 4.55 µM

SMILES: CCOc1cc(CNCCc2ccc(S(N)(=O)=O)cc2)ccc1OCc1ccccc1
- AC50: 2.44 µM

SMILES: O=C(c1cccc(S(=O)(=O)N2CCN(c3ccccc3)CC2)c1)N1CCCC(C(F)(F)F)C1 (configuration not stated)
- AC50: 2.68 µM

SMILES: COc1ccc2c(c1OC)C(=O)OC2Nc1nc(-c2ccccc2)cs1 (configuration not stated)
- AC50: 4.7 µM

SMILES: COC(=O)C1=C(c2ccc(-c3ccccc3)c(F)c2)C[C@@H]2CC[C@H]1N2C(=O)N1CCCC1
- AC50: 6.06 µM

SMILES: COc1ccccc1C(NC(C)=O)c1cc(Cl)c2cccnc2c1O (configuration not stated)
- AC50: 2.56 µM

SMILES: C[C@H]1COC(=O)[C@H](NC(=O)OCC2c3ccccc3-c3ccccc32)C/C=C\C[C@H](CC(=O)N(CCO)Cc2ccccc2)C(=O)N1
- AC50: 6.08 µM

SMILES: COc1ccc(CS(=O)(=O)/C(Cl)=C(/Cl)C(=O)Nc2ccc(OC)nc2)cc1
- AC50: < 0.26 µM

SMILES: Cn1nc(C(C)(C)C)cc1C(=O)NCc1ccc2c(c1)OCO2
- AC50: 1.17 µM

SMILES: CCC(NC(=O)Nc1nnc(C(F)(F)F)s1)(C(F)(F)F)C(F)(F)F
- AC50: 4.15 µM

SMILES: CCCCC(=O)NC(c1ccc(Cl)cc1)c1ccc2cccnc2c1O (configuration not stated)
- AC50: 0.772 µM

SMILES: Nc1cc2c(cc1Br)[nH]c(=O)c1ccccc12
- AC50: 5.46 µM

SMILES: COc1ccccc1NC(=O)c1nc(S(=O)(=O)Cc2ccccc2)ncc1Cl
- AC50: 0.492 µM

SMILES: Cc1c(C(=O)N(Cc2cccc(Br)c2)C2CCS(=O)(=O)C2)oc2ccccc12 (configuration not stated)
- AC50: 35.9 µM

SMILES: CNC[C@H](CC1CCCCC1)NC[C@H](Cc1ccccc1)NCCC12CC3CC(CC(C3)C1)C2
- AC50: 5.51 µM

SMILES: Cc1ccc(C(c2cc(Cl)c3cccnc3c2O)N2CCN(C)CC2)cc1 (configuration not stated)
- AC50: 5.54 µM

SMILES: COC(=O)c1cn(NC(=O)c2cc([N+](=O)[O-])ccc2F)c(=O)c2ccccc12
- AC50: 2.85 µM

SMILES: O=C(NNC(=O)C(c1ccccc1)c1ccccc1)c1ccccn1
- AC50: 2.87 µM

SMILES: O=c1[nH]c(Nc2nc3ccccc3o2)nc2c1CCCC2
- AC50: 7.71 µM

SMILES: Cc1sc2ncnc(N3CCN(S(=O)(=O)c4ccccc4)CC3)c2c1C
- AC50: 2.3 µM

SMILES: O=C(Cc1ccc(Cl)cc1Cl)Nc1ccncc1Cl
- AC50: 1.63 µM

SMILES: COc1cccc(CN(C)C(=O)c2cccc(S(=O)(=O)N3CCN(Cc4ccccc4)CC3)c2)c1OC
- AC50: 4.94 µM

SMILES: CCC(=O)c1cn(CC(=O)Nc2ccccc2Cl)c2ccccc12
- AC50: < 0.26 µM

SMILES: COc1ccc(C(=O)Cn2c(C(=O)/C=C/c3ccccc3)nc3ccccc32)cc1
- AC50: 4.47 µM

SMILES: Clc1cc2cccnc2c2ncccc12
- AC50: 4.06 µM

SMILES: COc1cc(OC)c(OC)cc1CCC(C)NCCC(c1ccccc1)c1ccccc1 (configuration not stated)
- AC50: 3.99 µM

SMILES: CCOc1cc(C)c(S(=O)(=O)Nc2ccc3cn[nH]c3c2)cc1C
- AC50: 4.89 µM

SMILES: CCC(=O)NC(c1ccco1)c1cc(Cl)c2cccnc2c1O (configuration not stated)
- AC50: 1.31 µM

SMILES: O=C(Nc1ccncc1)c1ccc(Cl)c(S(=O)(=O)N2CCc3ccccc32)c1
- AC50: 3.19 µM

SMILES: COc1ccc(CN2CCC(C(=O)Nc3ccc(Oc4cccnc4)cc3)CC2)c(C)c1C
- AC50: 3.68 µM

SMILES: CC(C)Cc1ccc(C(C)C(=O)Nc2ccccc2O)cc1 (configuration not stated)
- AC50: 1.89 µM

SMILES: CC(C)OC(=O)c1ccc(NCc2cc(O)ccc2O)cc1Cl
- AC50: 2.15 µM

SMILES: CC(=O)C1(C)CCC2C3C=C(C)C4=CC(=O)CCC4(C)C3CCC21C (configuration not stated)
- AC50: 9.83 µM

SMILES: CN(C(=O)OC(C)(C)C)c1ccc(-c2nc3ccccc3s2)cc1
- AC50: < 0.26 µM

SMILES: COc1ccccc1/C=C1\CCCC2=C1Nc1nnnn1C2c1ccccc1OC (configuration not stated)
- AC50: 36 µM

SMILES: Cc1cccc(Oc2cc(NC(=O)c3ccccc3)cc([N+](=O)[O-])c2)c1
- AC50: 3.09 µM

SMILES: COC(=O)[C@@]12CCCCN1[C@H](c1ccc(SC3CCCCC3)c(OC)c1)[C@@H]1C(=O)N(C)C(=O)[C@@H]12
- AC50: 21.4 µM

SMILES: CCn1c(/C=C/c2ccc([N+](=O)[O-])o2)nc2ccccc2c1=O
- AC50: 4.51 µM

SMILES: COc1ccccc1NS(=O)(=O)c1cc(NC(=O)c2ccc(Cl)nc2)ccc1Cl
- AC50: 3.12 µM

SMILES: COc1ccc(NS(=O)(=O)c2ccc(N3CCCCC3)c(N)c2)cc1
- AC50: 0.824 µM

SMILES: Cc1cc(Cl)n2c(nc3cc(F)c(F)cc32)c1C#N
- AC50: 3.56 µM

SMILES: CCOc1ccccc1NC(=O)c1nc(S(=O)(=O)Cc2ccccc2)ncc1Cl
- AC50: 0.376 µM

SMILES: CC1CCN(c2ccccc2NC(=S)NC(=O)c2ccc(-c3cccc([N+](=O)[O-])c3)o2)CC1
- AC50: 3.07 µM

SMILES: CC(=O)c1cn(Cc2ccccc2C#N)c2ccccc12
- AC50: 0.527 µM

SMILES: NS(=O)(=O)c1ccc(CCNc2nn3c(-c4cccc(OC(F)(F)F)c4)cnc3s2)cc1
- AC50: 3.93 µM

SMILES: COc1ccc(OC)c(NC(=O)CN(Cc2ccc(F)cc2)C2CCCCC2)c1
- AC50: 4.99 µM

SMILES: CC(C)(C)C(=O)Nc1ccc(NC(=O)c2ccco2)nc1
- AC50: 1.17 µM

SMILES: Oc1cc(-c2ccncc2)cc2cccnc12
- AC50: 5.4 µM

SMILES: O=C(c1ccc2c(=O)n(-c3ccccc3)c(=S)[nH]c2c1)N1CCCCC1
- AC50: 1.44 µM

SMILES: O=C(NCc1cccnc1)c1ccc(-c2ccc(F)c(F)c2)c2ccoc12
- AC50: 3.48 µM

SMILES: Cc1c(C(=O)Nc2ccc(F)c(F)c2)oc2ccc(S(=O)(=O)N3CCCCC3)cc12
- AC50: 7.05 µM

SMILES: COc1cc(NS(C)(=O)=O)ccc1Nc1c2ccccc2nc2ccccc12
- AC50: 1.32 µM
